Data as given in patent US6914045B2, “Glycopeptide antibiotics” (Wyeth Holdings Corporation, priority 2001, dated 2005).
Converted amounts (≈) assume the structure as drawn.

Assays:
Test in all cases: in vitro antibacterial evaluation, MIC by broth dilution
Type in all cases: cell-based
Staphylococcus sp. = tested on: Staphylococcus sp.
Procedure: (§1) Methods for in vitro Antibacterial Evaluation (Table 1)
(§2) The minimum inhibitory concentration (MIC), the lowest concentration of the antibiotic which inhibits growth of the test organism, is determined by the broth dilution method using Muller-Hinton II […] (Baltimore Biological Laboratories) following the recommendations of the National Committee for Clinical Laboratory Standards [Methods for dilution antimicrobial susceptibility tests for bacteria that grow aerobically, approved standard M7-A2, National Committee for Clinical Laboratory Standards, Villanova, Pa.].
(§3) An inoculum level of 5×10^5 CFU/mL, and a range of antibiotic concentrations (64-0.06 μg/mL) is used. […] The test organisms include a spectrum of Gram-positive bacteria comprised of Staphylococcus sp., Streptococcus sp. and Enterococcus sp. These organisms include recent clinical isolates that are resistant to methicillin, penicillin and/or vancomycin.

Enterococcus sp. = conditions: broth dilution, 18 hours at 35° C.
Procedure: as §1, §2, §3

Escherichia coli = conditions: 18 hours at 35° C.
Procedure: as §2, §3

[1] = broth dilution, 18 hours at 35° C.
[2] = strain ATCC 29213; broth dilution, 18 hours at 35° C.
[3] = strain GC 1131; broth dilution, 18 hours at 35° C.
[4] = strain GC 4535; broth dilution, 18 hours at 35° C.
[5] = strain GC 4536; broth dilution, 18 hours at 35° C.
[6] = Enterococcus faecalis (ATCC 29212)
[7] = Enterococcus faecalis (GC 4552)
[8] = broth dilution, 18 hours at 35° C.; strain GC 4537
[9] = broth dilution, 18 hours at 35° C.; strain GC 4538
[10] = broth dilution, 18 hours at 35° C.; strain GC 4547
[11] = Enterococcus faecalis (GC 2242)

Row | MIC Coagulase Negative Staphylococcus (GC 4537) (Staphylococcus sp.; [1]) [µg/mL] | MIC Coagulase Negative Staphylococcus (GC 4538) (Staphylococcus sp.; [1]) [µg/mL] | MIC Coagulase Negative Staphylococcus (GC 4547) (Staphylococcus sp.; [1]) [µg/mL] | MIC Staphylococcus aureus (ATCC 29213) (Staphylococcus sp.; [2]) [µg/mL] | MIC Staphylococcus aureus (GC 1131) (Staphylococcus sp.; [3]) [µg/mL] | MIC Staphylococcus aureus (GC 4535) (Staphylococcus sp.; [4]) [µg/mL] | MIC Staphylococcus aureus-SMITH (GC 4536) (Staphylococcus sp.; [5]) [µg/mL] | MIC Enterococcus faecalis (ATCC 29212) (Enterococcus sp.; [6]) [µg/mL] | MIC Enterococcus faecalis (GC 4552) (Enterococcus sp.; [7]) [µg/mL] | MIC Enterococcus faecalis (ATCC 29212) (Enterococcus sp.) [µg/mL] | MIC Enterococcus faecalis (GC 2242) (Enterococcus sp.) [µg/mL] | MIC Enterococcus faecalis (GC 4552) (Enterococcus sp.) [µg/mL] | MIC Escherichia coli (GC 4559) (Escherichia coli) [µg/mL] | MIC Escherichia coli (GC 4560) (Escherichia coli) [µg/mL] | Compound | MIC Coagulase Negative Staphylococcus (GC 4537) (Staphylococcus sp.; [8]) [µg/mL] | MIC Coagulase Negative Staphylococcus (GC 4538) (Staphylococcus sp.; [9]) [µg/mL] | MIC Coagulase Negative Staphylococcus (GC 4547) (Staphylococcus sp.; [10]) [µg/mL] | MIC Enterococcus faecalis (GC 2242) (Enterococcus sp.; [11]) [µg/mL] | also measured
1 | >64 | >64 | >64 | >64 | >64 | >64 | >64 | >64 | >64 | >64 | >64 | >64 | >64 | 8 (≈ 5.74 µM) | CCCCCC(=O)OCC1OC(N2C(=N)NCC2C(O)C2NC(=O)C(C(O)C3CNC(=N)N3)NC(=O)C(Cc3ccc(OC4OC(CO)C(OC5OC(CO)C(O)C(O)C5O)C(O)C4O)cc3)NC(=O)C(C(C)c3ccccc3)NC(=O)CNC(=O)C(CO)NC2=O)C(O)C(O)C1O (stereo not drawn) [Example 95, Cyclo[glycyl-β-methylphenylalanyl-O-(4-O-hexojpyranosylhexopyranosyl)tyrosyl-3-(2-iminoimidazolidin-4-yl)seryl-3-[3-(6-O-hexanoylhexopyranosyl)-2-iminoimidazolidin-4-yl]serylseryl]] | – | – | – | – | MIC Coagulase Negative Staphylococcus (GC 4537) (Staphylococcus sp.; strain GC 4537; broth dilution, 18 hours at 35° C.): >64 µg/mL; MIC Coagulase Negative Staphylococcus (GC 4538) (Staphylococcus sp.; strain GC 4538; broth dilution, 18 hours at 35° C.): >64 µg/mL; MIC Coagulase Negative Staphylococcus (GC 4547) (Staphylococcus sp.; strain GC 4547; broth dilution, 18 hours at 35° C.): >64 µg/mL; MIC Enterococcus faecalis (GC 2242) (Enterococcus sp.; strain GC 2242): >64 µg/mL
2 | >64 | >64 | >64 | >64 | >64 | >64 | >64 | >64 | >64 | >64 | >64 | >64 | >64 | 2 (≈ 1.42 µM) | CCCCCCC(=O)OCC1OC(N2C(=N)NCC2C(O)C2NC(=O)C(C(O)C3CNC(=N)N3)NC(=O)C(Cc3ccc(OC4OC(CO)C(OC5OC(CO)C(O)C(O)C5O)C(O)C4O)cc3)NC(=O)C(C(C)c3ccccc3)NC(=O)CNC(=O)C(CO)NC2=O)C(O)C(O)C1O (stereo not drawn) [Example 97, Cyclo[glycyl-β-methylphenylalanyl-O-(4-O-hexopyranosylhexolpyranosyl)tyrosyl-3-(2-iminoimidazolidin-4-yl)seryl-3-[3-(6-O-heptanoylhexopyranosyl)-2-iminoimidazolidin-4-yl]seryl-seryl]] | >64 | >64 | >64 | >64 | –

Row | Compound | MIC Coagulase Negative Staphylococcus (GC 4537) (Staphylococcus sp.; [1]) [µg/mL] | MIC Coagulase Negative Staphylococcus (GC 4538) (Staphylococcus sp.; [1]) [µg/mL] | MIC Coagulase Negative Staphylococcus (GC 4547) (Staphylococcus sp.; [1]) [µg/mL] | MIC Staphylococcus aureus (ATCC 29213) (Staphylococcus sp.; [2]) [µg/mL] | MIC Staphylococcus aureus (GC 1131) (Staphylococcus sp.; [3]) [µg/mL] | MIC Staphylococcus aureus (GC 4535) (Staphylococcus sp.; [4]) [µg/mL] | MIC Staphylococcus aureus-SMITH (GC 4536) (Staphylococcus sp.; [5]) [µg/mL] | MIC Enterococcus faecalis (ATCC 29212) (Enterococcus sp.; [6]) [µg/mL] | MIC Enterococcus faecalis (GC 4552) (Enterococcus sp.; [7]) [µg/mL] | MIC Enterococcus faecalis (ATCC 29212) (Enterococcus sp.) [µg/mL] | MIC Enterococcus faecalis (GC 2242) (Enterococcus sp.) [µg/mL] | MIC Enterococcus faecalis (GC 4552) (Enterococcus sp.) [µg/mL] | MIC Escherichia coli (GC 4559) (Escherichia coli) [µg/mL] | MIC Escherichia coli (GC 4560) (Escherichia coli) [µg/mL] | MIC Coagulase Negative Staphylococcus (GC 4537) (Staphylococcus sp.; [8]) [µg/mL] | MIC Coagulase Negative Staphylococcus (GC 4538) (Staphylococcus sp.; [9]) [µg/mL] | MIC Coagulase Negative Staphylococcus (GC 4547) (Staphylococcus sp.; [10]) [µg/mL] | MIC Enterococcus faecalis (GC 2242) (Enterococcus sp.; [11]) [µg/mL] | also measured
3 | CC(c1ccccc1)C1NC(=O)CNC(=O)C(CO)NC(=O)C(C(O)C2CNC(=N)N2C2OC(CO)C(O)C(O)C2O)NC(=O)C(C(O)C2CNC(=N)N2)NC(=O)C(Cc2ccc(OC3OC(COC(=O)Cc4ccccc4)C(OC4OC(CO)C(O)C(O)C4O)C(O)C3O)cc2)NC1=O (stereo not drawn) [Example 98b] | 16 (≈ 11.3 µM) | 8 (≈ 5.66 µM) | 8 (≈ 5.66 µM) | 16 (≈ 11.3 µM) | 16 (≈ 11.3 µM) | 16 (≈ 11.3 µM) | 8 (≈ 5.66 µM) | 64 (≈ 45.3 µM) | 128 (≈ 90.6 µM) | 64 (≈ 45.3 µM) | 64 (≈ 45.3 µM) | 128 (≈ 90.6 µM) | >128 | 2 (≈ 1.42 µM) | 16 (≈ 11.3 µM) | 8 (≈ 5.66 µM) | 8 (≈ 5.66 µM) | 64 (≈ 45.3 µM) | –
